This note sets out measurements from PubChem BioAssay AID330 (DTP/NCI, 2004).

This experiment relates to P388 leukemia ip, CD2F1 mice, survival T/C. Briefly: NCI In Vivo Anticancer Drug Screen. Data for tumor model P388 Leukemia (intraperitoneal) in CD2F1 (CDF1) mice. Conditions: endpoint: median survival time, higher = longer survival. The gist of the method:
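Mice carrying the transplanted tumor received test compound or vehicle. Survival was recorded in each group, and the value is the treated-group measurement divided by that of the vehicle-treated control group.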

[1] abbreviates: dose: 60.0 mg/kg/injection, schedule: Q01DX005 (ip), vehicle: Klucel (hydroxypropylcellulose) (HPC).
[2] abbreviates: dose: 120.0 mg/kg/injection, schedule: Q01DX005 (ip), vehicle: Klucel (hydroxypropylcellulose) (HPC).
[3] abbreviates: dose: 25.0 mg/kg/injection, schedule: Q01DX009 (ip), vehicle: saline.
[4] abbreviates: dose: 50.0 mg/kg/injection, schedule: Q01DX009 (ip), vehicle: saline.
The mark [5] stands for this setting: dose: 100.0 mg/kg/injection, schedule: Q01DX009 (ip), vehicle: saline.
[6] abbreviates: dose: 6.25 mg/kg/injection, schedule: Q01DX009 (ip), vehicle: Klucel (hydroxypropylcellulose) (HPC).
Where [7] appears, read: dose: 50.0 mg/kg/injection, schedule: Q01DX009 (ip), vehicle: saline with Tween-80.
Where [8] appears, read: dose: 100.0 mg/kg/injection, schedule: Q01DX009 (ip), vehicle: saline with Tween-80.
The mark [9] stands for this setting: dose: 50.0 mg/kg/injection, schedule: Q01DX005 (ip), vehicle: Klucel (hydroxypropylcellulose) (HPC).
Where [10] appears, read: dose: 100.0 mg/kg/injection, schedule: Q01DX005 (ip), vehicle: Klucel (hydroxypropylcellulose) (HPC).
[11] abbreviates: dose: 200.0 mg/kg/injection, schedule: Q01DX005 (ip), vehicle: Klucel (hydroxypropylcellulose) (HPC).
[12] abbreviates: dose: 12.5 mg/kg/injection, schedule: Q01DX009 (ip), vehicle: saline with Tween-80.
[13] abbreviates: dose: 25.0 mg/kg/injection, schedule: Q01DX009 (ip), vehicle: saline with Tween-80.

“And” between values parts separate entries of the source, which are not always exact repeats. Equal entries are not always repeated. Toxic doses and inconclusive results are not listed.

For `CCN(CC)Cc1c(C)[nH]c2ccc3c(c2c1=O)CCCC3`, the T/C is 91 % of control under setting [1] and 93 % of control under setting [2].

For `Cc1ccc(C(=O)CC(O)(C(F)(F)F)C(F)(F)F)cc1`, the T/C is, setting by setting: (dose: 100.0 mg/kg/injection, schedule: Q04DX003 (ip), vehicle: other) 100 % of control; (dose: 200.0 mg/kg/injection, schedule: Q04DX003 (ip), vehicle: other) 118 % of control; (dose: 400.0 mg/kg/injection, schedule: Q04DX003 (ip), vehicle: other) 122 % of control.

Consider `Cc1ccc(NSC(Cl)(Cl)Cl)cc1`, for which the T/C is 100 % of control (dose: 12.5 mg/kg/injection, schedule: Q01DX009 (ip), vehicle: saline); 100 % of control (dose: 12.5 mg/kg/injection, schedule: Q01DX009 (ip), vehicle: suspension in saline); 100 % of control under setting [3]; 100 % of control (dose: 25.0 mg/kg/injection, schedule: Q01DX009 (ip), vehicle: suspension in saline); 104 % of control and 123 % of control under setting [4]; 97 % of control (dose: 50.0 mg/kg/injection, schedule: Q01DX009 (ip), vehicle: suspension in saline). Also, where the note is “dose: 100.0 mg/kg/injection, schedule: Q01DX009 (ip), vehicle: suspension in saline”, the T/C is 87 % of control.

Turning to `CCCN(CCC)CC(=O)Nc1c(Cl)cccc1Cl`, the T/C runs as follows: under setting [3], 100 % of control; under setting [4], 110 % of control; under setting [5], 105 % of control.

For the compound `COc1cc2c(c(OC)c1OC)-c1ccc(OC)c(=O)cc1[C@@H](NC(=O)c1ccc([N+](=O)[O-])cc1)CC2`, the T/C (dose: 0.25 mg/kg/injection, schedule: Q01DX009 (ip), vehicle: Klucel (hydroxypropylcellulose) (HPC)) is 109 % of control and 115 % of control; the T/C (dose: 0.5 mg/kg/injection, schedule: Q01DX009 (ip), vehicle: Klucel (hydroxypropylcellulose) (HPC)) is 114 % of control; the T/C (dose: 0.78 mg/kg/injection, schedule: Q01DX009 (ip), vehicle: Klucel (hydroxypropylcellulose) (HPC)) is 108 % of control; the T/C (dose: 1.0 mg/kg/injection, schedule: Q01DX009 (ip), vehicle: Klucel (hydroxypropylcellulose) (HPC)) is 114 % of control and 124 % of control; the T/C (dose: 1.56 mg/kg/injection, schedule: Q01DX009 (ip), vehicle: Klucel (hydroxypropylcellulose) (HPC)) was 112 % of control; the T/C (dose: 2.0 mg/kg/injection, schedule: Q01DX009 (ip), vehicle: Klucel (hydroxypropylcellulose) (HPC)) is 124 % of control. Besides, the T/C was 160 % of control (dose: 3.12 mg/kg/injection, schedule: Q01DX009 (ip), vehicle: Klucel (hydroxypropylcellulose) (HPC)); 166 % of control (dose: 4.0 mg/kg/injection, schedule: Q01DX009 (ip), vehicle: Klucel (hydroxypropylcellulose) (HPC)); 198 % of control under setting [6].

Take `CN(C)c1ccc(/C=C/c2ccnc3ccccc23)cc1N`: the T/C under setting [6] was 98 % of control; the T/C (dose: 12.5 mg/kg/injection, schedule: Q01DX009 (ip), vehicle: Klucel (hydroxypropylcellulose) (HPC)) is 93 % of control; the T/C (dose: 25.0 mg/kg/injection, schedule: Q01DX009 (ip), vehicle: Klucel (hydroxypropylcellulose) (HPC)) is 90 % of control; the T/C (dose: 50.0 mg/kg/injection, schedule: Q01DX009 (ip), vehicle: Klucel (hydroxypropylcellulose) (HPC)) was 109 % of control.

Turning to `CCOC(=O)C(C)/C(C)=N\NC(N)=S` (centres undefined), the T/C under setting [1] is 100 % of control; the T/C under setting [2] is 100 % of control; the T/C (dose: 240.0 mg/kg/injection, schedule: Q01DX005 (ip), vehicle: Klucel (hydroxypropylcellulose) (HPC)) was 100 % of control.

With `c1ccc2c(c1)ccc1c(-c3ccncc3)n[nH]c12`, the T/C reads like this: under setting [7], 99 % of control; under setting [8], 88 % of control; (dose: 200.0 mg/kg/injection, schedule: Q01DX009 (ip), vehicle: saline with Tween-80) 87 % of control.

Take `C=C1C(=O)OC2C(O)CCCC12` (centres undefined): the T/C is 105 % of control and 110 % of control (dose: 50.0 mg/kg/injection, schedule: Q04DX003 (ip), vehicle: Klucel (hydroxypropylcellulose) (HPC)); 98 % of control and 103 % of control (dose: 100.0 mg/kg/injection, schedule: Q04DX003 (ip), vehicle: Klucel (hydroxypropylcellulose) (HPC)); 110 % of control (dose: 200.0 mg/kg/injection, schedule: Q04DX003 (ip), vehicle: Klucel (hydroxypropylcellulose) (HPC)).

For `NC(N)=NCC(N)C(=O)O` (centres undefined), the T/C was 101 % of control under setting [9], 104 % of control under setting [10] and 104 % of control under setting [11].

On to `CC(=O)/C(=C\c1ccc([N+](=O)[O-])cc1)C(=O)CCN(C)C`, for which the T/C runs as follows: (dose: 30.0 mg/kg/injection, schedule: Q01DX005 (ip), vehicle: saline) 118 % of control; (dose: 60.0 mg/kg/injection, schedule: Q01DX005 (ip), vehicle: saline) 121 % of control and 123 % of control.

For `CC1(C)CC(=O)C(C(c2cccc(O)c2O)C2C(=O)CC(C)(C)CC2=O)C(=O)C1`, the T/C by setting is: under setting [12], 100 % of control and 96 % of control; under setting [13], 92 % of control; under setting [7], 93 % of control and 96 % of control; under setting [8], 92 % of control and 94 % of control.

On to `CCCCCCCCCCCCCCCCOc1ccc(S(=O)(=O)N/N=c2/sc3ccc(S(=O)(=O)O)cc3n2C)cc1C(=O)O`, for which the T/C under setting [3] is 99 % of control, the T/C under setting [4] is 100 % of control, the T/C under setting [8] is 102 % of control and the T/C under setting [5] was 86 % of control.

Consider `CCOC(=O)C(CC)(COCc1ccccc1)C(=O)OCC`, for which the T/C reads like this: (dose: 50.0 mg/kg/injection, schedule: Q01DX009 (ip), vehicle: other) 100 % of control; (dose: 100.0 mg/kg/injection, schedule: Q01DX009 (ip), vehicle: other) 100 % of control; (dose: 200.0 mg/kg/injection, schedule: Q01DX009 (ip), vehicle: other) 100 % of control.

On to `CC1CCCC(C2CC3CCCCC3C(N)[N-]2)[N-]1.O=[N+]([O-])O.O=[N+]([O-])O.[Cu+2]` (centres undefined), for which the T/C reads like this: (dose: 6.25 mg/kg/injection, schedule: Q04DX002 (ip), vehicle: suspension in saline) 93 % of control; (dose: 12.5 mg/kg/injection, schedule: Q04DX002 (ip), vehicle: suspension in saline) 110 % of control.

With `CCOC(=S)SCC(=O)C1(O)Cc2c(O)c3c(c(O)c2C(OC2CC(N)C(O)C(C)O2)C1)C(=O)c1c(OC)cccc1C3=O` (centres undefined), the T/C is, setting by setting: (dose: 1.56 mg/kg/injection, schedule: Q01DX009 (ip), vehicle: other) 120 % of control; (dose: 3.13 mg/kg/injection, schedule: Q01DX009 (ip), vehicle: other) 123 % of control; (dose: 37.5 mg/kg/injection, schedule: Q04DX003 (ip), vehicle: other) 121 % of control; (dose: 75.0 mg/kg/injection, schedule: Q04DX003 (ip), vehicle: other) 94 % of control; (dose: 150.0 mg/kg/injection, schedule: Q04DX003 (ip), vehicle: other) 99 % of control.

Turning to `NC(=O)c1ccc(C(N)=O)cc1`, the T/C under setting [12] is 100 % of control, the T/C under setting [13] was 100 % of control and the T/C under setting [7] is 95 % of control.

For the compound `COc1ccc(C(=O)c2ccccc2)c(OC(=O)Nc2c(Cl)cccc2Cl)c1`, the T/C (dose: 60.0 mg/kg/injection, schedule: Q01DX005 (ip), vehicle: saline with Tween-80) was 93 % of control; the T/C (dose: 120.0 mg/kg/injection, schedule: Q01DX005 (ip), vehicle: saline with Tween-80) was 107 % of control; the T/C (dose: 240.0 mg/kg/injection, schedule: Q01DX005 (ip), vehicle: saline with Tween-80) is 88 % of control.

Consider `COC1=CC(=O)C2CC=CC3CC(=O)OC1C32CO` (centres undefined), for which the T/C under setting [9] was 113 % of control, the T/C under setting [10] was 103 % of control and the T/C under setting [11] was 101 % of control.

Consider `CC1CCCC2COCN12` (centres undefined), for which the T/C was 105 % of control and 98 % of control (dose: 12.5 mg/kg/injection, schedule: Q01DX005 (ip), vehicle: saline); 105 % of control and 106 % of control (dose: 25.0 mg/kg/injection, schedule: Q01DX005 (ip), vehicle: saline); 101 % of control and 116 % of control and 118 % of control (dose: 50.0 mg/kg/injection, schedule: Q01DX005 (ip), vehicle: saline); 123 % of control and 96 % of control (dose: 100.0 mg/kg/injection, schedule: Q01DX005 (ip), vehicle: saline); 115 % of control (dose: 200.0 mg/kg/injection, schedule: Q01DX005 (ip), vehicle: saline).
